Experimental data taken from patent US20230113609A1, “SSTR5 ANTAGONISTS” (Kallyope, Inc., priority 2019, published 2023).

Target: T1, human SSTR5 (Homo sapiens, UniProt P35346)
T1 construct: expressed in transfected cells
Test: Inositol phosphate accumulation assay (IP1 HTRF, antagonist mode)
Format: cell-based
Settings: CHO-K1 cells co-expressing human SSTR5 with Gqi5, SST28 agonist at concentration generating 90% of full activation
Source text: CHO-K1 cells stably co-expressing human SSTR5 with Gqi5 were developed using Jump-In technology from Thermo-Fisher. Gqi5 is the mouse G alpha q protein, that was modified to interact with Gi-coupled GPCRs as described previously (Coward, P.; Chan, S. D.; Wada, H. G.; Humphries, G. M.; Conklin, B. R. Chimeric G proteins Allow a High-Throughput Signaling Assay of Gi-Coupled Receptors. Anal Biochem. 1999, 270(2),242-248).
Co-expression of Gqi5 with SSTR5 allowed monitoring of SSTR5 activity by following IP1 accumulation. The assay was performed in a 384-well plate format using the IP1 assay kit from Cis-Bio in an antagonist mode, i.e., pre-incubation with antagonist following by receptor activation by agonist at a concentration generating 90% of full activation. Frozen cells expressing human SSTR5 were thawed, washed, and then plated in DMEM supplemented with 10% FBS and non-essential amino acids. 40 μL of 2.5×10^5 cells/mL were plated on a Poly D-Lysine coated 384-well white plate. The cells were then incubated for 16 hr. at 37° C/5% CO2. After 16 hour the medium was removed, and 10 μL of stimulation buffer was added to the cells. Test compounds were dissolved in DMSO at concentrations 2000-fold that of the final assay concentrations. 7.5 nLcompound solutions were transferred to the cell plates using a Labcyte Echo® acoustic liquid handler. The plates were then incubated for 15 minutes at 37° C/5%CO2. After the first incubation, 5 μL of 30 nM SST28 were added to the cells, and the cells were incubated for 90 minutes at 37° C/5%CO2. 5 μL of detection buffer (prepared as described in the IP-1 kit) was added to each well, and the plates were incubated at RT for 1 hour.
TR-FRET was measured using a ClarioSTAR plate reader, calculating the ratio between emissions at 665 nm and 620 nm (HTRF ratio). The HTRF ratio for positive (Max) and negative (Min) controls were used to normalize HTRF data and generate values for % inhibition. IC50 and maximal inhibition values were determined using a standard 4-parameter fit.

T1 sequence (P35346 whole entry): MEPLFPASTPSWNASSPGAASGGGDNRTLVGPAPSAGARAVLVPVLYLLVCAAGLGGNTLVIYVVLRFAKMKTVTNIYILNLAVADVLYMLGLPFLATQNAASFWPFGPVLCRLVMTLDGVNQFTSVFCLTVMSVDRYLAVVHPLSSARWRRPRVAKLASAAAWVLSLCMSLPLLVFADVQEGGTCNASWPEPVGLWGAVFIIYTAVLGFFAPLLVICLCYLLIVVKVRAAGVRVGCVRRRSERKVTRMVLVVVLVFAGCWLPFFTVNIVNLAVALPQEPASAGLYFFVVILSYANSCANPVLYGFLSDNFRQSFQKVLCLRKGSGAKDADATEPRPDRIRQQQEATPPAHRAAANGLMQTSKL

SMILES | IC50 [nM]
CCOc1cc(C(=O)OC)c(C2CC2)cc1CN1CCC2(CC1)CC(=O)N(c1ccc(C(=O)N(CCO)CCO)cc1)C2 [Example 34, methyl 4-((2-(4-(bis(2-hydroxyethyl)carbamoyl)phenyl)-3-oxo-2,8-diazaspiro[4.5]decan-8-yl)methyl)-2-cyclopropyl-5-ethoxybenzoate] | 1000 to 5000
CCOc1cc(C(=O)OC)c(C2CC2)cc1CN1CCC2(CC1)CN(c1ccc(C(=O)NC[C@H](O)[C@@H](O)[C@H](O)[C@H](O)CO)cc1)C(=O)O2 [Example 54, methyl 2-cyclopropyl-5-ethoxy-4-((2-oxo-3-(4-(((2S,3R,4R,5R)-2,3,4,5,6-pentahydroxyhexyl)carbamoyl)phenyl)-1-oxa-3,8-diazaspiro[4.5]decan-8-yl)methyl)benzoate] | ≤ 100
CCOc1cc(-c2ccc(F)cc2)c(C2CC2)cc1CN1CCC2(CC1)CN(c1ccc(S(=O)(=O)NCCCNC(=N)N)cc1)C(=O)O2 [compound 80, 4-(8-((2-cyclopropyl-5-ethoxy-4′-fluoro-[1,1′-biphenyl]-4-yl)methyl)-2-oxo-1-oxa-3,8-diazaspiro [4.5]decan-3-yl)-N-(3-guanidinopropyl)benzenesulfonamide] | ≤ 100
CCOc1cc(-c2ccc(F)cc2)c(C2CC2)cc1CN1CCC2(CC1)CN(c1ccc(S(=O)(=O)NCCOCCO)cc1)C(=O)N2 [compound 85, 4-(8-((2-cyclopropyl-5-ethoxy-4′-fluoro-[1,1′-biphenyl]-4-yl)methyl)-2-oxo-1,3,8-triazaspiro[4.5]decan-3-yl)-N-(2-(2-hydroxyethoxy)ethyl)benzenesulfonamide] | ≤ 100
CCOc1cc(C(=O)OC)c(C2CC2)cc1CN1CCN(C(=O)Oc2cccc(C(=O)NC[C@H](O)[C@@H](O)[C@H](O)[C@H](O)CO)c2)CC1 [Example 98] | 100 to 1000
CCOc1cc(C#N)c(C2CC2)cc1CN1CCN(C(=O)Oc2ccc(C(=O)NCCCC(=O)NCCO)cc2)CC1 [compound 95, [4-[[4-(2-hydroxyethylamino)-4-oxo-butyl]carbamoyl]phenyl]4-[(4-cyano-5-cyclopropyl-2-ethoxy-phenyl)methyl]piperazine-1-carboxylate] | > 5000
CCOc1cc(C(=O)OC)c(C2CC2)cc1CN1CCC2(CC1)CC(=O)N(c1ccc(C(=O)N3CCC(S(N)(=O)=O)CC3)cc1)C2 [Example 52, methyl 2-cyclopropyl-5-ethoxy-4-((3-oxo-2-(4-(4-sulfamoylpiperidine-1-carbonyl)phenyl)-2,8-diazaspiro[4.5]decan-8-yl)methyl)benzoate] | 100 to 1000
CCOc1cc(C(=O)OC)c(C2CC2)cc1CN1CCC2(CC1)CC(=O)N(c1ccc(C(=O)NCCNC(=O)NC(CO)(CO)CO)cc1)C2 [Example 18, methyl 2-cyclopropyl-4-((2-(4-((2-(3-(1,3-dihydroxy-2-(hydroxymethyl)propan-2-yl)ureido)ethyl)carbamoyl)phenyl)-3-oxo-2,8-diazaspiro[4.5]decan-8-yl)methyl)-5-ethoxybenzoate] | 100 to 1000
CCOc1cc(C(=O)OC)c(C2CC2)cc1CN1CCC2(CC1)CC(=O)N(c1ccc(C(=O)NC[C@H](O)[C@@H](O)[C@H](O)[C@H](O)CO)cc1)C2 [Example 37, methyl 2-cyclopropyl-5-ethoxy-4-((3-oxo-2-(4-(((2S,3R,4R,5R)-2,3,4,5,6-pentahydroxyhexyl)carbamoyl)phenyl)-2,8-diazaspiro[4.5]decan-8-yl)methyl)benzoate] | 1000 to 5000

More lines, now with the values ahead:

IC50 [nM] | SMILES
100 to 1000 | CCOc1cc(C(=O)OC)c(C2CC2)cc1CN1CCC2(CC1)CC(=O)N(c1ccc(C(=O)NCCOCCO)cc1)C2 [Example 26, methyl 2-cyclopropyl-5-ethoxy-4-((2-(4-((2-(2-hydroxyethoxy)ethyl)carbamoyl)phenyl)-3-oxo-2,8-diazaspiro[4.5]decan-8-yl)methyl)benzoate]
100 to 1000 | CCOc1cc(C(=O)OC)c(C2CC2)cc1CN1CCC2(CC1)CC(=O)N(c1ccc(C(=O)NC(CO)CO)cc1)C2 [Example 19, methyl 2-cyclopropyl-4-((2-(4-((1,3-dihydroxypropan-2-yl)carbamoyl)phenyl)-3-oxo-2.8-diazaspiro[4.5]decan-8-yl)methyl)-5-ethoxybenzoate]
100 to 1000 | CCOc1cc(C(=O)OC)c(C2CC2)cc1CN1CCC2(CC1)CC(=O)N(c1ccc(C(=O)NC[C@H](O)CO)cc1)C2 [Example 35, methyl (S)-2-cyclopropyl-4-((2-(4-((2,3-dihydroxypropyl)carbamoyl)phenyl)-3-oxo-2,8-diazaspiro[4.5]decan-8-yl)methyl)-5-ethoxybenzoate]
> 5000 | CCOc1cc(C(=O)OC)c(C2CC2)cc1CN1CCC2(CC1)CN(c1ccc(C(=O)NCCCS(=O)(=O)O)cc1)C(=O)N2 [Example 78, 3-(4-(8-(5-cyclopropyl-2-ethoxy-4-(methoxycarbonyl)benzyl)-2-oxo-1,3,8-triazaspiro[4.5]decan-3-yl)benzamido)propane-1-sulfonic acid]
> 5000 | CCOc1cc(C(=O)OC)c(C2CC2)cc1CN1CCC2(CC1)CC(=O)N(c1ccc(C(=O)NCCNC(=O)NC(CO)CO)cc1)C2 [Example 16, methyl 2-cyclopropyl-4-((2-(4-((2-(3-(1,3-dihydroxypropan-2-yl)ureido)ethyl)carbamoyl)phenyl)-3-oxo-2,8-diazaspiro[4.5]decan-8-yl)methyl)-5-ethoxybenzoate]
> 5000 | CCOc1cc(C(=O)OC)c(C2CC2)cc1CN1CCC2(CC1)CC(=O)N(c1ccc(C(=O)NC(CO)(CO)CO)cc1)C2 [Example 21, methyl 2-cyclopropyl-4-((2-(4-((1,3-dihydroxy-2-(hydroxymethyl)propan-2-yl)carbamoyl)phenyl)-3-oxo-2,8-diazaspiro[4.5]decan-8-yl)methyl)-5-ethoxybenzoate]
> 5000 | CCOc1cc(C(=O)OC)c(C2CC2)cc1CN1CCC2(CC1)CC(=O)N(c1ccc(C(=O)NCCCS(=O)(=O)O)cc1)C2 [Example 30, 3-(4-(8-(5-cyclopropyl-2-ethoxy-4-(methoxycarbonyl)benzyl)-3-oxo-2,8-diazaspiro[4.5]decan-2-yl)benzamido)propane-1-sulfonic acid]
> 5000 | CCOc1cc(C(=O)OC)c(C2CC2)cc1CN1CCC2(CC1)CC(=O)N(c1ccc(C(=O)NCCNC(=O)NCCO)cc1)C2 [compound 13, Methyl 2-cyclopropyl-5-ethoxy-4-[[2-[4-[2-(2-hydroxyethylcarbamoylamino)ethylcarbamoyl]phenyl]-3-oxo-2,8-diazaspiro[4.5]decan-8-yl]methyl]benzoate]
100 to 1000 | CCOc1cc(C(=O)OC)c(C2CC2)cc1CN1CCC2(CC1)CC(=O)N(c1ccc(C(=O)NCCCNC(N)=O)cc1)C2 [Example 39, methyl 2-cyclopropyl-5-ethoxy-4-((3-oxo-2-(4-((3-ureidopropyl)carbamoyl)phenyl)-2,8-diazaspiro[4.5]decan-8-yl)methyl)benzoate]
> 5000 | CCOc1cc(C(=O)OC)c(C2CC2)cc1CN1CCC2(CC1)CC(=O)N(c1ccc(C(=O)NCCCP(C)(=O)O)cc1)C2 [Example 33, (3-(4-(8-(5-cyclopropyl-2-ethoxy-4-(methoxycarbonyl)benzyl)-3-oxo-2,8-diazaspiro[4.5]decan-2-yl)benzamido)propyl)(methyl)phosphinic acid]
100 to 1000 | CCOc1cc(C(=O)OC)c(C2CC2)cc1CN1CCC2(CC1)CC(=O)N(c1ccc(C(=O)NCCC(=O)O)cc1)C2 [Example 25, 3-(4-(8-(5-cyclopropyl-2-ethoxy-4-(methoxycarbonyl)benzyl)-3-oxo-2,8-diazaspiro[4.5]decan-2-yl)benzamido)propanoic acid]
100 to 1000 | CCOc1cc(C(=O)OC)c(C2CC2)cc1CN1CCC2(CC1)CC(=O)N(c1ccc(C(=O)NCCS(N)(=O)=O)cc1)C2 [Example 50, methyl 2-cyclopropyl-5-ethoxy-4-((3-oxo-2-(4-((2-sulfamoylethyl)carbamoyl)phenyl)-2,8-diazaspiro[4.5]decan-8-yl)methyl)benzoate]
100 to 1000 | CCOc1cc(C(=O)OC)c(C2CC2)cc1CN1CCC2(CC1)CC(=O)N(c1ccc(C(=O)NCCS(=O)(=O)O)cc1)C2 [Example 29, 2-(4-(8-(5-cyclopropyl-2-ethoxy-4-(methoxycarbonyl)benzyl)-3-oxo-2,8-diazaspiro[4.5]decan-2-yl)benzamido)ethane-1-sulfonic acid]
100 to 1000 | CCOc1cc(C(=O)OC)c(C2CC2)cc1CN1CCC2(CC1)CC(=O)N(c1ccc(C(=O)NCCN3CCNC3=O)cc1)C2 [Example 40, methyl 2-cyclopropyl-5-ethoxy-4-((3-oxo-2-(4-((2-(2-oxoimidazolidin-1-yl)ethyl)carbamoyl)phenyl)-2,8-diazaspiro[4.5]decan-8-yl)methyl)benzoate]
